# Laboratory results published in ChEMBL document CHEMBL5506042, “Discovery of the Clinical Candidate IDOR-1117-2520: A Potent and Selective Antagonist of CCR6 for Autoimmune Diseases” (J Med Chem, 2024).
# Calls of active or inactive are those of the source. The rule behind the calls is not given here.
# Tests used:
# [1] = Fraction unbound in mouse plasma at 1 uM by rapid equilibrium dialysis based LC-MS/MS analysis; type: ADME, cell-free
# [2] = Cytotoxicity against human HepG2 cells assessed as reduction in cell viability incubated for 72 hrs by CellTiter-Glo assay
# HepaRG = experiment: Cytotoxicity against human HepaRG cells assessed as leakage of intracellular LDH at 30 uM incubated for 24 hrs by spectrophotometry
# [3] = Lipophilicity, LogD of the compound in 1-Octanol/PBS at pH 7.4 by miniaturized shake flask method
# [4] = Intrinsic clearance in human liver microsomes at 1 uM measured for 15 mins in presence of NADPH regenerating system measured per mg protein by LC-MS/MS analysis; type: ADME, Microsome; conditions: read-out: CLH
# [5] = Chemical stability of the compound at 0.1 mg/ml at pH 2 irradiated with xenon lamp at 250W/m2 incubated for 24 hrs by stress test; type: physicochemical; conditions: buffer, read-out: Stability
# [6] = Chemical stability of the compound at 0.1 mg/ml at pH 4 irradiated with xenon lamp at 250W/m2 incubated for 24 hrs by stress test; type: physicochemical; conditions: buffer, read-out: Stability
# [7] = Chemical stability of the compound at 0.1 mg/ml at pH 7 irradiated with xenon lamp at 250W/m2 incubated for 24 hrs by stress test; type: physicochemical; conditions: buffer, read-out: Stability
# [8] = Chemical stability of the compound at 0.1 mg/ml at pH 9 irradiated with xenon lamp at 250W/m2 incubated for 24 hrs by stress test; type: physicochemical; conditions: buffer, read-out: Stability
# [9] = Chemical stability of the compound at 0.1 mg/ml at pH 10 irradiated with xenon lamp at 250W/m2 incubated for 24 hrs by stress test; type: physicochemical; conditions: buffer, read-out: Stability
# [10] = Intrinsic clearance in rat liver microsomes at 0.1 uM measured for 15 mins in presence of NADPH regenerating system by LC-MS/MS analysis; type: ADME, Microsome; conditions: read-out: CLH
# [11] = Intrinsic clearance in rat liver microsomes at 1 uM measured for 15 mins in presence of NADPH regenerating system by LC-MS/MS analysis; type: ADME, Microsome; conditions: read-out: CLH
# [12] = Intrinsic clearance in rat liver microsomes at 3 uM measured for 15 mins in presence of NADPH regenerating system by LC-MS/MS analysis; type: ADME, Microsome; conditions: read-out: CLH
# [13] = Intrinsic clearance in mouse liver microsomes at 1 uM measured for 15 mins in presence of NADPH regenerating system by LC-MS/MS analysis; type: ADME, Microsome; conditions: read-out: CLH
# [14] = Fraction unbound in rat plasma at 1 uM by rapid equilibrium dialysis based LC-MS/MS analysis; type: ADME, cell-free
# [15] = Clearance in Wistar rat at 1 mg/kg, iv; type: ADME, organism-based; conditions: in vivo
# [16] = Volume of distribution at steady state in Wistar rat at 1 mg/kg, iv; type: ADME, organism-based; conditions: in vivo, read-out: Vdss
# [17] = Half life in Wistar rat at 1 mg/kg, iv; type: ADME, organism-based; conditions: in vivo
# [18] = AUC in C57BL/6 mouse at 15 mg/kg, po; type: ADME, organism-based; conditions: in vivo
# [19] = AUC in C57BL/6 mouse at 50 mg/kg, po; type: ADME, organism-based; conditions: in vivo
# [20] = Cmax in C57BL/6 mouse at 15 mg/kg, po; type: ADME, organism-based; conditions: in vivo
# [21] = Cmax in C57BL/6 mouse at 50 mg/kg, po; type: ADME, organism-based; conditions: in vivo
# [22] = Tmax in C57BL/6 mouse at 15 mg/kg, po; type: ADME, organism-based; conditions: in vivo
# [23] = Tmax in C57BL/6 mouse at 50 mg/kg, po; type: ADME, organism-based; conditions: in vivo
# [24] = AUC in Wistar rat at 10 mg/kg, po; type: ADME, organism-based; conditions: in vivo
# [25] = AUC in Wistar rat at 50 mg/kg, po; type: ADME, organism-based; conditions: in vivo
# [26] = Cmax in Wistar rat at 10 mg/kg, po; type: ADME, organism-based; conditions: in vivo
# [27] = Cmax in Wistar rat at 50 mg/kg, po; type: ADME, organism-based; conditions: in vivo
# [28] = Tmax in Wistar rat at 10 mg/kg, po; type: ADME, organism-based; conditions: in vivo
# [29] = Tmax in Wistar rat at 50 mg/kg, po; type: ADME, organism-based; conditions: in vivo
# [30] = Oral bioavailability in Wistar rat at 10 mg/kg; type: ADME, organism-based; conditions: in vivo
# [31] = Oral bioavailability in Wistar rat at 50 mg/kg; type: ADME, organism-based; conditions: in vivo
# [32] = fCmax in po dosed C57BL/6 mouse; type: ADME, organism-based; conditions: in vivo
# [33] = molecular target: T1, C-C chemokine receptor type 6 (Mus musculus, UniProt O54689); experiment: Antagonist activity at CCR6 in C57BL/6J mouse whole blood assessed as inhibition of CCL20-stimulated receptor internalization in lymphocytes incubated for 40 mins followed by CCL20 addition and measured after 40 mins by flow cytometry
# T1 sequence (O54689 whole entry): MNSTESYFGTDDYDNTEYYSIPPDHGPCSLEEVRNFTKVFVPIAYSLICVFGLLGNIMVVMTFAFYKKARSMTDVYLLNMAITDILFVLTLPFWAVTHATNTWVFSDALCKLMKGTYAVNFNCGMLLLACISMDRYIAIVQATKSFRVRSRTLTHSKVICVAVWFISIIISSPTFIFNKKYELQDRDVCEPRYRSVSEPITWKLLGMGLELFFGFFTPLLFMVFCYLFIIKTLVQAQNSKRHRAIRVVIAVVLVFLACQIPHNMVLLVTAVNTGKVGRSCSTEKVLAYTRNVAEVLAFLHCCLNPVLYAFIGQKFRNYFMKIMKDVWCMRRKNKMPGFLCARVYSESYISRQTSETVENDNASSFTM
# Mus musculus [34] = experiment: Inhibition of chemotaxis of CCR6-positive B cells in bronchoalveolar lavage fluid in ovalbumin-induced inflammation BALB/c mouse model at 15 mg/kg/day, po treated with OVA and compound from day 1 to day 18 and measured at 24 hrs post last dose of OVA challenge by flow cytometry; type: functional, organism-based; conditions: time 18.0 day
# Mus musculus [35] = experiment: Inhibition of chemotaxis of CCR6-positive B cells in bronchoalveolar lavage fluid in ovalbumin-induced inflammation BALB/c mouse model at 15 mg/kg/day, po treated with OVA from day 1 to day 18 and with compound from day 8 to 18 and measured at 24 hrs post last dose of OVA challenge by flow cytometry; type: functional, organism-based; conditions: time 11.0 day
structure (smiles),measurement,setting,value
CN1CC(C)(C(O)(c2ccc(OC(F)(F)F)cc2)c2cncc(N3CCCC3)c2)C1 (racemic),fraction unbound at 1 µM,[1],0.05
same,IC50 at 72 h,[2],11 µM
same,Activity,HepaRG,Non-Toxic
same,logD,[3],2.2
same,"microsomal CLint at […], 1 µM",[4],146 µL/min/mg
same,"remaining at 24 h, 0.1 mg/ml",[5],97%
same,"remaining at 24 h, 0.1 mg/ml",[6],4%
same,"remaining at 24 h, 0.1 mg/ml",[7],3%
same,"remaining at 24 h, 0.1 mg/ml",[8],2%
same,"remaining at 24 h, 0.1 mg/ml",[9],2%
same,"microsomal CLint at […], 0.1 µM",[10],> 1250 µL/min/mg
same,"microsomal CLint at […], 1 µM",[11],750 µL/min/mg
same,"microsomal CLint at […], 3 µM",[12],450 µL/min/mg
same,"microsomal CLint at […], 1 µM",[13],666 µL/min/mg
same,fraction unbound at 1 µM,[14],0.06
same,clearance,[15],62 mL/min/kg
same,Vd,[16],11 L/kg
same,half-life,[17],144 min
same,AUC,[18],145 ng·h/mL
same,AUC,[19],5030 ng·h/mL
same,Cmax,[20],30 ng/mL
same,Cmax,[21],1100 ng/mL
same,Tmax,[22],30 min
same,Tmax,[23],120 min
same,AUC,[24],165 ng·h/mL
same,AUC,[25],1500 ng·h/mL
same,Cmax,[26],110 ng/mL
same,Cmax,[27],308 ng/mL
same,Tmax,[28],30 min
same,Tmax,[29],30 min
same,bioavailability,[30],6%
same,bioavailability,[31],11%
same,fCmax,[32],55 ng/mL
same,IC50,[33],0.0013 µM
same,inhibition,Mus musculus [34],Active
same,inhibition,Mus musculus [35],Active
